For test [1], the system named is HMLE-Twist-ER cells. The test can be described thus: in vitro mammosphere formation assay. The format is cell-based, human. Particulars: HMLE-Twist-ER cells expressing shDPYD_1, exogenous addition of metabolite. The protocol:
500 cells/well were seeded in 96-well ultra-low adhesion plates (Corning, 3474) in MammoCult Basal Medium (Stem Cell Technology, 05621) containing 2.6% methylcellulose (Stem Cell Technology, H4100) and 10% MammoCult Proliferation Supplements (Stem Cell Technology, 05621), supplemented with 0.5 μg/ml hydrocortisone, 4 μg/ml Heparin and Pen/strep. Spheres were counted 12-14 days later.

For test [2], the system named is HMLE-Twist-ER cells. Put plainly: LC-MS measurement of cellular DHU and uracil. The format is cell-based, human. Particulars: OHT treatment of HMLE-Twist-ER cells, 15 days time course. The method, then:
Solvents were obtained from Fisher Scientific and were Optima LC/MS grade except where otherwise specified. Cells grown in standard tissue culture plates (500,000 cells per sample) were washed twice in an ice-cold solution of 0.9% NaCl in deionized water, followed by extraction on dry ice in 1 mL 80% methanol containing 10 ng/mL phenylalanine-d8 and valine-d8 (Sigma-Aldrich) as internal standards. The cell mixtures were shaken vigorously on a Vortex mixer for 10 min. at 4° C., vacuum-dried, and resuspended in 100 μL LC/MS grade water (Fisher). These extracts were then centrifuged at 15,000×g at 4° C. for 10 min, and the supernatants were passed through a cellulose acetate particulate filter (National Scientific). […]
The UPLC system was coupled to a QExactive orbitrap mass spectrometer equipped with a HESI II probe (Thermo Fisher Scientific) operating in positive ion mode. […] Quantitation of the data was performed with XCalibur QuanBrowser 2.2 (Thermo Fisher Scientific) using a 5 ppm mass tolerance, by a researcher blinded to the identity of the samples. Pure thymine (T0376), and uracil (U1128) were obtained from Sigma-Aldrich and dihydrothymine (L01996), and dihydrouracil (L01918) were obtained from Alfa Aesar and were run in half-log serial dilution (3 nM-100 μM) to confirm chromatographic retention times and generate standard curves for quantitation of each analytical batch.

“Also recorded” adds a separate entry of the source.

`O=C1CCNC(=O)N1` [DHU, dihydrouracil]: the “rescue of mammosphere formation” value in test [1] is “more strongly than uracil; also recorded: dose-dependent rescue of mammosphere formation”. The same measure, in the same setting: under `O=c1cc[nH]c(=O)[nH]1` [uracil] stands “significantly smaller effect”. Still for that read-out and setting: under `CC1CNC(=O)NC1=O` (stereo not shown) [DHT, dihydrothymine] stands “dose-dependent rescue of mammosphere formation”. Consider 4-hydroxytamoxifen [OHT], for which the “increase of cellular DHU/uracil molar ratio” value in test [2] was 5 fold.

These data come from patent US9551036B2, “Metabolic gene mesenchymal signatures and uses thereof” (Whitehead Institute for Biomedical Research, priority 2013, dated 2017).
